Source: US20230111310A1, “CARBOXYLIC ACID DERIVATIVE-SUBSTITUTED IMINO ARYL COMPOUND, PREPARATION METHOD THEREFOR, HERBICIDAL COMPOSITION AND USE THEREOF” (Qingdao Kingagroot Chemical Compound Co., Ltd., priority 2020, published 2023)

Assays:
Assay in all cases: Weeding effect in post-emergence stage
Assay type in all cases: in vivo
Conditions in all cases: level of fresh weight growth control rate
Alopecurus japonicus = test system: Alopecurus japonicus
Method in brief: (§1)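 Weeds were treated post-emergence at 2-3 leaves with compound doses from 7.5 up to 500 g/ha, formulated in acetone–Tween 80 with methyl oleate synergist. Efficacy was assessed as growth control after 3 weeks.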

Digitaria sanguinalis = test system: Digitaria sanguinalis
Method in brief: as §1

Abutilon theophrasti = test system: Abutilon theophrasti
Method in brief: as §1

Setaria viridis = test system: Setaria viridis
Method in brief: as §1

Eleusine indica = test system: Eleusine indica
Method in brief: as §1

Echinochloa crusgalli = test system: Echinochloa crusgalli
Method in brief: as §1

Row | SMILES | Weeding effect in post-emergence stage, Alopecurus japonicus (Alopecurus japonicus; Dose 15 g/ha) | Weeding effect in post-emergence stage, Digitaria sanguinalis (Digitaria sanguinalis; Dose 15 g/ha) | Weeding effect in post-emergence stage, Abutilon theophrasti (Abutilon theophrasti; Dose 15 g/ha) | Weeding effect in post-emergence stage, Setaria viridis (Setaria viridis; Dose 15 g/ha) | Weeding effect in post-emergence stage, Eleusine indica (Eleusine indica; Dose 15 g/ha) | Weeding effect in post-emergence stage, Echinochloa crusgalli (Echinochloa crusgalli; Dose 15 g/ha) | Weeding effect in post-emergence stage, Alopecurus japonicus (Alopecurus japonicus; Dose 30 g/ha) | Weeding effect in post-emergence stage, Digitaria sanguinalis (Digitaria sanguinalis; Dose 30 g/ha) | Weeding effect in post-emergence stage, Abutilon theophrasti (Abutilon theophrasti; Dose 30 g/ha) | Weeding effect in post-emergence stage, Setaria viridis (Setaria viridis; Dose 30 g/ha) | Weeding effect in post-emergence stage, Eleusine indica (Eleusine indica; Dose 30 g/ha) | Weeding effect in post-emergence stage, Echinochloa crusgalli (Echinochloa crusgalli; Dose 30 g/ha)
1 | C/C(=N\OC(=O)C(C)O/N=C/c1cc(-n2c(=O)cc(C(F)(F)F)n(C)c2=O)c(F)cc1Cl)C(C)C (stereo not drawn) [Compound 250] | 5 (Level 5: growth control rate is above 85%) | 5 (Level 5: growth control rate is above 85%) | 5 (Level 5: growth control rate is above 85%) | 5 (Level 5: growth control rate is above 85%) | 5 (Level 5: growth control rate is above 85%) | 5 (Level 5: growth control rate is above 85%) |  |  |  |  |  | 
2 | CCC(CC)=NOC(=O)C(C)O/N=C/c1cc(-n2c(=O)cc(C(F)(F)F)n(C)c2=O)c(F)cc1Cl (stereo not drawn) [Compound 251] | 5 (Level 5: growth control rate is above 85%) | 5 (Level 5: growth control rate is above 85%) | 5 (Level 5: growth control rate is above 85%) | 5 (Level 5: growth control rate is above 85%) | 5 (Level 5: growth control rate is above 85%) | 5 (Level 5: growth control rate is above 85%) |  |  |  |  |  | 
3 | CCO/C(C)=N/OC(=O)C(C)O/N=C/c1cc(-n2c(=O)cc(C(F)(F)F)n(C)c2=O)c(F)cc1Cl (stereo not drawn) [Compound 252] | 5 (Level 5: growth control rate is above 85%) | 5 (Level 5: growth control rate is above 85%) | 5 (Level 5: growth control rate is above 85%) | 5 (Level 5: growth control rate is above 85%) | 5 (Level 5: growth control rate is above 85%) | 5 (Level 5: growth control rate is above 85%) |  |  |  |  |  | 
4 | COC/C(C)=N/OC(=O)C(C)O/N=C/c1cc(-n2c(=O)cc(C(F)(F)F)n(C)c2=O)c(F)cc1Cl (stereo not drawn) [Compound 253] | 5 (Level 5: growth control rate is above 85%) | 5 (Level 5: growth control rate is above 85%) | 5 (Level 5: growth control rate is above 85%) | 5 (Level 5: growth control rate is above 85%) | 5 (Level 5: growth control rate is above 85%) | 5 (Level 5: growth control rate is above 85%) |  |  |  |  |  | 
5 | CCOC(=O)/C(C)=N/OC(=O)C(C)O/N=C/c1cc(-n2c(=O)cc(C(F)(F)F)n(C)c2=O)c(F)cc1Cl (stereo not drawn) [Compound 254] | 5 (Level 5: growth control rate is above 85%) | 5 (Level 5: growth control rate is above 85%) | 5 (Level 5: growth control rate is above 85%) | 5 (Level 5: growth control rate is above 85%) | 5 (Level 5: growth control rate is above 85%) | 5 (Level 5: growth control rate is above 85%) |  |  |  |  |  | 
6 | CC(O/N=C/c1cc(-n2c(=O)cc(C(F)(F)F)n(C)c2=O)c(F)cc1Cl)C(=O)O/N=C/c1ccccc1 (stereo not drawn) [Compound 255] |  |  |  |  |  |  | 5 (Level 5: growth control rate is above 85%) | 5 (Level 5: growth control rate is above 85%) | 5 (Level 5: growth control rate is above 85%) | 5 (Level 5: growth control rate is above 85%) | 5 (Level 5: growth control rate is above 85%) | 5 (Level 5: growth control rate is above 85%)
7 | CC(O/N=C/c1cc(-n2c(=O)cc(C(F)(F)F)n(C)c2=O)c(F)cc1Cl)C(=O)ON=C1CCCC1 (stereo not drawn) [Compound 258] | 4 (Level 4: growth control rate is greater than or equal to 60% and less than 85%) | 5 (Level 5: growth control rate is above 85%) | 5 (Level 5: growth control rate is above 85%) | 5 (Level 5: growth control rate is above 85%) | 5 (Level 5: growth control rate is above 85%) | 5 (Level 5: growth control rate is above 85%) |  |  |  |  |  | 
